Test results: patent US12128030B2, “Pharmaceutical composition comprising antiplatelet agent and gastric acid secretion inhibitor” (HK INNO.N CORPORATION, priority 2018, dated 2024)

Experiments:
[1] = clopidogrel in direct contact with compound of Formula 1; 40° C./RH 75%, four weeks
Procedure: A test on blending compatibility with additives was performed in a state, in which clopidogrel was alone and mixed with a compound of Formula 1.
A ratio of additives to main component was adjusted, after which a change of contents and related substances was evaluated under accelerated test conditions (40° C./RH 75%) for four weeks, such that the results thereof are shown in FIGS. 3 to 5.

[2] = Evaluation test on pharmacokinetic drug interactions through nonclinical models; assay type: in vivo; conditions: beagle dogs; combined administration with clopidogrel
Procedure: To determine the effect of esomeprazole (PPI drug) and a compound of Formula 1 on a medicinal effect of clopidogrel, a test on pharmacokinetic drug interactions was performed in such a way that 20 mg of clopidogrel and 20 mg of esomeprazole or 50 mg of the compound of Formula 1 were administered in combination into beagle dogs once or repeatedly (for seven days).
Particularly, clopidogrel was repeatedly administered into ten beagle dogs for seven days, after which esomeprazole and the compound of Formula 1 were administered in combination into those beagle dogs at steady-state for seven days, such that blood was collected therefrom on 5th, 8th and 14th days, to perform a pharmacokinetic analysis before and after the administration.
FIGS. 1 and 2 are graphs of showing a concentration of clopidogrel active metabolites in blood, which was measured after administering esomeprazole and the compound of Formula 1 in combination, respectively.

| SMILES | stability of drug (contents and related substances) [1] | risk of drug interactions with clopidogrel [2] |
| --- | --- | --- |
| COC(=O)[C@H](c1ccccc1Cl)N1CCc2sccc2C1 [clopidogrel, methyl (+)-(S)-α-(2-chlorophenyl)-6,7-dihydrothieno[3,2-c]pyridine-5(4H)-acetate] | stability of a drug deteriorates | – |
| Cc1nc2c(O[C@H]3CCOc4cc(F)cc(F)c43)cc(C(=O)N(C)C)cc2[nH]1 [compound of Formula 1, (S)-4-[(5,7-difluoro-3,4-dihydro-2H-chromene-4-yl)oxy]-N,N,2-trimethyl-1H-benzimidazole-6-carboxamide] | – | low risk of drug interactions |
